Results reported in US20050032149A1, “Enzyme catalyzed isotope labeling” (priority 2003, published 2005).

Key:
α-chymotrypsin = target: T1, α-chymotrypsin (Bos taurus, UniProt P00766); experiment: Chymotryptic digestion of apomyoglobin in H2 18O, 18O2-coding of peptides; assay type: biochemical, Bovine; conditions: apomyoglobin 51 nmol, 200 μg α-chymotrypsin, H2 18O pH 8.0, room temperature
T1 construct: purchased Sigma (St. Louis, Mo.); host or cells: bovine pancreas
Protocol: Chymotryptic Digestion of Apomyoglobin in H2^18O. An apomyglobin (51 nmol) suspension in H2^18O (24 mM Tris/HCl, pH 8.0) was incubated with 200 μg of α-chymotrypsin (bovine pancreas, Sigma) at room temperature. Aliquots were taken at different time intervals for MALDI-FT-ICR analysis.
MALDI-FT-ICR Mass Spectrometric Analysis. Reaction mixtures in H2^18O were diluted with 70:30 acetonitrile:water (0.1% TFA) to obtain a final peptide concentration of about 10 pmol/μl. A 0.6 μL aliquot of this solution was applied on the MALDI stainless steel probe followed by 0.6 μL of a solution of 2,5-dihydroxybezoic acid (500 mM) in 70:30 acetonitrile:water (0.1% TFA). The mixture was gently stirred during the crystallization. An FT-ICR instrument equipped with a 4.7 T actively shielded magnet (lonspec Co., Irvine, Calif.) was used for this study. An external MALDI ion source was differentially pumped. A pulsed (5 ns width) Nd:YAG laser (Minilite, Contimuum, Inc., Santa Clara, Calif.) was operated at 355 nm (triple of its fundamental frequency). The laser energy was attenuated by adjusting the angle between two Glan-laser prism polarizers (Karl-Lambrecht Co., Chicago, Ill.). Ions were injected into the ICR cylindrical cell by an RF-only quadrupole ion guide. A 4 ms nitrogen pulse was used to trap the ions and remove their excess of kinetic energy. After a 4 s delay, the ions were excited by a 35 Vb-p RF sweep during 4 ms (29-180 kHz). The image signal was amplified and digitized at an acquisition rate of 2 MHz (512 k data point) resulting in the recording of a 262.1 ms time domain, which gave a typical mass resolution of 10 000. […] In mass spectra, heights for the monoisotope peaks for peptides, the peaks with masses 2 Da higher, and the peaks with masses 4 Da higher were measured as peak intensities I0, I2, and I4, respectively.
Exchange Reactions Catalyzed by Chymotrypsin. Chymotryptic proteolysis of apomyoglobin in H2^18O was analyzed by MALDI-FT-ICR. […]

trypsin [1] = target: T2, trypsin (Sus scrofa, UniProt P00761); experiment: Control experiment: non-Arg/Lys-terminated peptides incubated with trypsin in H2 18O; assay type: biochemical; conditions: mixture VEPIPY 710 μM and YGGFM 500 μM, 200 mM Tris, 2 μg trypsin, H2 18O pH 8.5, room temperature overnight
T2 construct: purchased Promega (Madison, Wis.)
T2 sequence (P00761 9-231): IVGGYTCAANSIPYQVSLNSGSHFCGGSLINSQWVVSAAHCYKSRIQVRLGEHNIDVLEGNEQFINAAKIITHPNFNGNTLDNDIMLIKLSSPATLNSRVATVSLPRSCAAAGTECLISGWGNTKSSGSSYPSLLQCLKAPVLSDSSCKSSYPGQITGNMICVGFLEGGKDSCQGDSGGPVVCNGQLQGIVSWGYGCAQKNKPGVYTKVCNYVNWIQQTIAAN
Protocol: For the process of ^18O2-coding of Arg- and Lys-terminated peptides through two exchange reactions, a sequential mechanism (FIG. 7) is supported by the kinetics shown in FIG. 5. Trypsin-catalyzed exchange reactions are substrate-specific; only peptides with Arg or Lys in the P1 position can undergo exchanges catalyzed by trypsin. As a control experiment, a mixture of VEPIPY (710 μM) and YGGFM (500 μM) was incubated with 200 mM Tris and 2 μg trypsin in H2^18O (pH 8.5) at room-temperature overnight. […] Thus, there was not significant catalysis from either the enzyme or the buffer.

trypsin [2] = target: T2, trypsin; experiment: Kinetics of 16O-to-18O exchange of YGGFMK and YGGFMR catalyzed by trypsin (MALDI-FT-ICR-MS); assay type: biochemical
Protocol: Kinetics Measurement of ^16O-to-^18O Exchange of YGGFMK and YGGFMR Catalyzed by Trypsin. […] Aliquots of the reaction mixture were taken at different time intervals for the first 10% of reactant conversion. The reaction temperature was maintained at 26±1° C., and the ionic strength was controlled by NaCl (45 mM). The reaction volume was typically 20 μL. The change of the peak intensity for the peptide was monitored by MALDI-FT-ICR-MS. Substrate concentrations used in the kinetics studies ranged between 0.2 KM and 5 KM, and measurements were duplicated for each substrate concentration. At high concentrations (>10 mM) of YGGFMK, acetonitrile (10% v/v) was used to increase the substrate solubility in reaction buffer. A full course of ^16O-to-^18O exchange reaction of YGGFMR was also recorded using similar conditions.
MALDI-FT-ICR Mass Spectrometric Analysis. Reaction mixtures in H2^18O were diluted with 70:30 acetonitrile:water (0.1% TFA) to obtain a final peptide concentration of about 10 pmol/μl. A 0.6 μL aliquot of this solution was applied on the MALDI stainless steel probe followed by 0.6 μL of a solution of 2,5-dihydroxybezoic acid (500 mM) in 70:30 acetonitrile:water (0.1% TFA). The mixture was gently stirred during the crystallization. An FT-ICR instrument equipped with a 4.7 T actively shielded magnet (lonspec Co., Irvine, Calif.) was used for this study. An external MALDI ion source was differentially pumped. A pulsed (5 ns width) Nd:YAG laser (Minilite, Contimuum, Inc., Santa Clara, Calif.) was operated at 355 nm (triple of its fundamental frequency). The laser energy was attenuated by adjusting the angle between two Glan-laser prism polarizers (Karl-Lambrecht Co., Chicago, Ill.). Ions were injected into the ICR cylindrical cell by an RF-only quadrupole ion guide. A 4 ms nitrogen pulse was used to trap the ions and remove their excess of kinetic energy. After a 4 s delay, the ions were excited by a 35 Vb-p RF sweep during 4 ms (29-180 kHz). The image signal was amplified and digitized at an acquisition rate of 2 MHz (512 k data point) resulting in the recording of a 262.1 ms time domain, which gave a typical mass resolution of 10 000. The average of single time domain transients (more than 10 times) was Fourier transformed into the corresponding frequency domain (two zero fills and Blackman apodization).
MALDI-FT-ICR Mass Spectrometric Analysis of ^16O-to-^18O Exchange Reactions. […] The residual ^16O content in H2^18O (less than 5%) was not considered in formulation of the equation.
Kinetic Constants for ^16O-to-^18O Exchange of YGGFMK and YGGFMR Catalyzed by Trypsin. […] The time course for the first 10% of the reaction was limited to less than 30 min by adjusting the concentration of trypsin.
From the plots, values for kcat's, KM's, and kcat/KM's were calculated.

[3] = trypsin-catalyzed 16O-to-18O exchange, double reciprocal plot, pH 8.0, 26±1° C.

## RNDIMKY [CT10, Chymotryptic peptide of apomyoglobin]
α-chymotrypsin
  time to complete 18O2-coding: 1.5 h

## TGHPETLEKF [CT4, Chymotryptic peptide of apomyoglobin]
α-chymotrypsin
  time to complete 18O2-coding: 3.5 h

## VEPIPY
Trypsin [1]
  exchange of oxygens: No detectable exchange of oxygens

## YGGFM
Trypsin [1]
  exchange of oxygens: No detectable exchange of oxygens

## YGGFMK
Trypsin [2]; [3]
  Km: 4400 ± 700 µM
  kcat: 2800 ± 300 min⁻¹
Trypsin [2]; trypsin-catalyzed exchange
  Km: 4400 µM
  kcat: 2800+−300 per min

## YGGFMR
Trypsin [2]; [3]
  Km: 1300 ± 300 µM
  kcat: 3500 ± 500 min⁻¹
Trypsin [2]; trypsin-catalyzed exchange
  Km: 1300 µM
  kcat: 3500+−500 per min

## GADAQGAMTKALELF [CT9, Chymotryptic peptide of apomyoglobin]
α-chymotrypsin
  time to complete 18O2-coding: 20 h
